Data taken from PubChem BioAssay (NCI).
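These data come from cells grown in 96-well plates and exposed to compound for 48 hours at five concentrations. TGI: total growth inhibition.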

Key:
Experiment in all cases: NCI tumour cell line growth inhibition, 48 h
HL-60(TB) leukemia = system: HL-60(TB) leukemia
SK-MEL-28 melanoma = system: SK-MEL-28 melanoma
OVCAR-3 ovarian = system: OVCAR-3 ovarian
HCT-116 colon = system: HCT-116 colon
RXF-631 renal = system: RXF-631 renal
OVCAR-5 ovarian = system: OVCAR-5 ovarian
NCI-H23 lung = system: NCI-H23 lung
SF-268 CNS = system: SF-268 CNS
A549 NSCLC = system: A549 NSCLC
SNB-19 CNS = system: SNB-19 CNS
COLO 205 colon = system: COLO 205 colon
IGROV1 ovarian = system: IGROV1 ovarian
UACC-257 melanoma = system: UACC-257 melanoma
A498 renal = system: A498 renal
UO-31 renal = system: UO-31 renal
DLD-1 colon = system: DLD-1 colon
SK-OV-3 ovarian = system: SK-OV-3 ovarian
DMS 273 small cell lung = system: DMS 273 small cell lung
SR leukemia = system: SR leukemia
SF-295 CNS = system: SF-295 CNS
DMS 114 small cell lung = system: DMS 114 small cell lung
HT29 colon = system: HT29 colon
NCI-H522 lung = system: NCI-H522 lung
MOLT-4 leukemia = system: MOLT-4 leukemia
KM12 colon = system: KM12 colon
TK-10 renal = system: TK-10 renal
K-562 leukemia = system: K-562 leukemia
SN12C renal = system: SN12C renal
U251 CNS = system: U251 CNS
CAKI-1 renal = system: CAKI-1 renal
HCC-2998 colon = system: HCC-2998 colon
SNB-75 CNS = system: SNB-75 CNS
HOP-18 NSCLC = system: HOP-18 NSCLC
SNB-78 CNS = system: SNB-78 CNS
UACC-62 melanoma = system: UACC-62 melanoma
M19-MEL melanoma = system: M19-MEL melanoma
CCRF-CEM leukemia = system: CCRF-CEM leukemia
MALME-3M melanoma = system: MALME-3M melanoma
NCI-H226 lung = system: NCI-H226 lung
SW-620 colon = system: SW-620 colon
EKVX NSCLC = system: EKVX NSCLC
NCI-H460 lung = system: NCI-H460 lung
786-0 renal = system: 786-0 renal
HOP-92 NSCLC = system: HOP-92 NSCLC
RXF 393 renal = system: RXF 393 renal
ACHN renal = system: ACHN renal
SK-MEL-2 melanoma = system: SK-MEL-2 melanoma
SF-539 CNS = system: SF-539 CNS
SK-MEL-5 melanoma = system: SK-MEL-5 melanoma
LXFL 529 NSCLC = system: LXFL 529 NSCLC
HCT-15 colon = system: HCT-15 colon
LOX IMVI melanoma = system: LOX IMVI melanoma
OVCAR-8 ovarian = system: OVCAR-8 ovarian
RPMI-8226 leukemia = system: RPMI-8226 leukemia
OVCAR-4 ovarian = system: OVCAR-4 ovarian
KM20L2 colon = system: KM20L2 colon
M14 melanoma = system: M14 melanoma
HOP-62 NSCLC = system: HOP-62 NSCLC
XF 498 CNS = system: XF 498 CNS

Measured: TGI

C[C@H]1CCC2C(CN3CCCCC3)C(=O)OC2[C@]2(C)C(=O)CC(N3CCCCC3)C12O (some centres undefined)
23.4 µM: DMS 273 small cell lung
22.2 µM: 786-0 renal
73 µM: SNB-19 CNS
5.92 µM: UACC-62 melanoma
10.6 µM: HL-60(TB) leukemia
47.5 µM: MALME-3M melanoma
4.31 µM: RXF 393 renal
15.8 µM: SR leukemia
6.73 µM: NCI-H226 lung
27.9 µM: UO-31 renal
3.71 µM: RXF-631 renal
18.6 µM: COLO 205 colon
79.9 µM: SK-OV-3 ovarian
14.7 µM: OVCAR-3 ovarian
> 100 µM: SNB-78 CNS
12 µM: HCT-116 colon
16.3 µM: SK-MEL-5 melanoma
16 µM: DLD-1 colon
90.4 µM: SK-MEL-2 melanoma
48.4 µM: HOP-18 NSCLC
9.73 µM: ACHN renal
16.4 µM: HT29 colon
23.9 µM: M19-MEL melanoma
84.1 µM: IGROV1 ovarian
3.25 µM: NCI-H522 lung
25.9 µM: NCI-H23 lung
18.2 µM: HCC-2998 colon
90.8 µM: A549 NSCLC
44.8 µM: SF-268 CNS
16.1 µM: EKVX NSCLC
10.1 µM: CCRF-CEM leukemia
22.3 µM: SF-295 CNS
32.6 µM: NCI-H460 lung
7.54 µM: HOP-92 NSCLC
22.6 µM: OVCAR-5 ovarian
49.4 µM: SNB-75 CNS
13.1 µM: UACC-257 melanoma | DMS 114 small cell lung
97.9 µM: CAKI-1 renal
24.5 µM: U251 CNS
10.3 µM: SW-620 colon
12.3 µM: KM12 colon
32.9 µM: SK-MEL-28 melanoma
39.2 µM: K-562 leukemia
14.8 µM: SN12C renal
10.9 µM: MOLT-4 leukemia
34.3 µM: TK-10 renal
12.8 µM: A498 renal
7.93 µM: SF-539 CNS

Cc1cc(C)c(C2=NO[C@@H]3C(=O)N(c4ccc(Cc5ccc(N6C(=O)[C@H]7C(c8c(C)cc(C)cc8C)=NO[C@H]7C6=O)cc5)cc4)C(=O)[C@H]23)c(C)c1
not listed: HCT-116 colon | RXF-631 renal | SNB-19 CNS | SR leukemia | NCI-H522 lung | U251 CNS | NCI-H460 lung | ACHN renal
> 100 µM: all other assays above

O=C(O)c1ccccc1C1c2ccc(Cl)cc2Oc2cc(Cl)ccc21
not listed: HCT-116 colon | A498 renal | SR leukemia | SNB-78 CNS | NCI-H226 lung | XF 498 CNS
> 100 µM: all other assays above

COc1ccc(N2C(=O)C3C=CC(n4[nH]c(=O)n(Cc5ccccc5)c4=O)CC3C2=O)cc1 (centres undefined)
not listed: RXF-631 renal | SR leukemia | OVCAR-4 ovarian
> 100 µM: all other assays above
